Experimental data reported in ChEMBL document CHEMBL1136764, “N6-cyclopentyl-2-(3-phenylaminocarbonyltriazene-1-yl)adenosine (TCPA), a very selective agonist with high affinity for the human adenosine A1 receptor” (J Med Chem, 2003).

molecular target: T1, Adenosine receptor A2b (Homo sapiens) (UniProt P29275); assay: In vitro binding affinity towards human adenosine A2B receptor by [3H]DPCPX displacement at 10 uM.
T1 sequence (whole entry): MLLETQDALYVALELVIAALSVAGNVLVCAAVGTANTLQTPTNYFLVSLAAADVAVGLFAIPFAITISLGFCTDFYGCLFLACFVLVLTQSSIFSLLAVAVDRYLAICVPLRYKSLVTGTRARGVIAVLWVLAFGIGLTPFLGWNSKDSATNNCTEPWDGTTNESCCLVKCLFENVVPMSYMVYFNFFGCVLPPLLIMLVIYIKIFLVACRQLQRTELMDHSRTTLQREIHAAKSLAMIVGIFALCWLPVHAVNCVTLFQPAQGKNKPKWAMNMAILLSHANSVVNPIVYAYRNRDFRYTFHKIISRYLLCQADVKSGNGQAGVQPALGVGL

| SMILES | Displacement [%] |
| --- | --- |
| Nc1nc(/N=N/NC(=O)Nc2ccccc2Cl)nc2c1ncn2[C@@H]1O[C@H](CO)[C@@H](O)[C@H]1O | 30 |
| Nc1nc(/N=N/NC(=O)Nc2ccc(Cl)cc2)nc2c1ncn2[C@@H]1O[C@H](CO)[C@@H](O)[C@H]1O | 21 |
| Nc1nc(/N=N/NC(=O)Nc2cccc(Cl)c2)nc2c1ncn2C1O[C@H](CO)[C@@H](O)[C@H]1O (stereo partly drawn) | 64 |
| NC(=O)/N=N/Nc1nc(Nc2ccccc2)c2ncn([C@@H]3O[C@H](CO)[C@@H](O)[C@H]3O)c2n1 | 10 |
| COc1ccc(NC(=O)/N=N/Nc2nc(N)c3ncn([C@@H]4O[C@H](CO)[C@@H](O)[C@H]4O)c3n2)cc1 | 15 |
| O=C(N/N=N/c1nc(NCC(c2ccccc2)c2ccccc2)c2ncn([C@@H]3O[C@H](CO)[C@@H](O)[C@H]3O)c2n1)Nc1ccccc1 | 10 |
| Nc1nc(/N=N/NC(=O)NCc2ccccc2)nc2c1ncn2[C@@H]1O[C@H](CO)[C@@H](O)[C@H]1O | 9 |
| Nc1nc(/N=N/NC(=O)Nc2nccs2)nc2c1ncn2[C@@H]1O[C@H](CO)[C@@H](O)[C@H]1O | 79 |
| COc1ccccc1NC(=O)/N=N/Nc1nc(N)c2ncn([C@@H]3O[C@H](CO)[C@@H](O)[C@H]3O)c2n1 | 18 |

molecular target: T2, Adenosine receptor A3 (Homo sapiens, UniProt P0DMS8); assay: Inhibition of [125 I]-IABMECA binding to human adenosine A3 receptor
T2 sequence (P0DMS8 whole entry): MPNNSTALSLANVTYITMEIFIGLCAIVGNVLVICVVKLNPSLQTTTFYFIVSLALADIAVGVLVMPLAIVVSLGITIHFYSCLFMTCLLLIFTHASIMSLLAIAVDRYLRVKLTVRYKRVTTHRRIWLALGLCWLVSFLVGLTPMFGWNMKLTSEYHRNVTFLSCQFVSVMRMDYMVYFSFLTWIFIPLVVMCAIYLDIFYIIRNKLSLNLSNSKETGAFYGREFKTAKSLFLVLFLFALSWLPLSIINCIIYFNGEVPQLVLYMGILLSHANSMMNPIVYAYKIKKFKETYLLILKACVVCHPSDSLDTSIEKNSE

| SMILES | Ki [nM] |
| --- | --- |
| Nc1nc(NN=NC(=O)Oc2ccccc2)nc2c1ncn2C1O[C@H](CO)[C@@H](O)[C@H]1O (stereo partly drawn) | 577 |
| Nc1nc(/N=N/NC(=O)Nc2ccccc2Cl)nc2c1ncn2[C@@H]1O[C@H](CO)[C@@H](O)[C@H]1O | 179 |
| NC(=O)/N=N/Nc1nc(Nc2ccccc2)c2ncn([C@@H]3O[C@H](CO)[C@@H](O)[C@H]3O)c2n1 | 175 |
| COc1ccc(NC(=O)/N=N/Nc2nc(N)c3ncn([C@@H]4O[C@H](CO)[C@@H](O)[C@H]4O)c3n2)cc1 | 73 |
| O=C(N/N=N/c1nc(NCC(c2ccccc2)c2ccccc2)c2ncn([C@@H]3O[C@H](CO)[C@@H](O)[C@H]3O)c2n1)Nc1ccccc1 | 140 |
| Nc1nc(/N=N/NC(=O)NCc2ccccc2)nc2c1ncn2[C@@H]1O[C@H](CO)[C@@H](O)[C@H]1O | 147 |
| Nc1nc(/N=N/NC(=O)Nc2nccs2)nc2c1ncn2[C@@H]1O[C@H](CO)[C@@H](O)[C@H]1O | 610 |
| COc1ccccc1NC(=O)/N=N/Nc1nc(N)c2ncn([C@@H]3O[C@H](CO)[C@@H](O)[C@H]3O)c2n1 | 81 |

molecular target: T3, Adenosine receptor A1 (Homo sapiens, UniProt P30542)
T3 sequence (P30542 whole entry): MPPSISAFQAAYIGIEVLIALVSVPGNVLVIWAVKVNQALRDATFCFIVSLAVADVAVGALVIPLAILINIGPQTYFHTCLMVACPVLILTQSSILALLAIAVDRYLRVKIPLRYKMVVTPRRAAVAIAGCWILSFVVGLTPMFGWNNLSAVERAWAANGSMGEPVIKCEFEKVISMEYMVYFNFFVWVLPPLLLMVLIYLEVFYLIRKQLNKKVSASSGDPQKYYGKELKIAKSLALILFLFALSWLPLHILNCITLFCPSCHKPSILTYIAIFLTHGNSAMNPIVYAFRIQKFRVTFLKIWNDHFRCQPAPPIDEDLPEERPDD
Description: In vitro binding affinity towards human adenosine A1 receptor by [3H]DPCPX displacement.

| SMILES | Ki [nM] |
| --- | --- |
| Nc1nc(/N=N/NC(=O)Nc2ccccc2Cl)nc2c1ncn2[C@@H]1O[C@H](CO)[C@@H](O)[C@H]1O | 23 |
| Nc1nc(N=NNC(=O)Nc2cccc(Cl)c2)nc2c1ncn2C1O[C@H](CO)[C@@H](O)[C@H]1O (stereo partly drawn) | 15 |
| Nc1nc(/N=N/NC(=O)Nc2ccc(Cl)cc2)nc2c1ncn2[C@@H]1O[C@H](CO)[C@@H](O)[C@H]1O | 15 |
| NC(=O)/N=N/Nc1nc(Nc2ccccc2)c2ncn([C@@H]3O[C@H](CO)[C@@H](O)[C@H]3O)c2n1 | 204 |
| COc1ccc(NC(=O)/N=N/Nc2nc(N)c3ncn([C@@H]4O[C@H](CO)[C@@H](O)[C@H]4O)c3n2)cc1 | 20 |
| O=C(N/N=N/c1nc(NCC(c2ccccc2)c2ccccc2)c2ncn([C@@H]3O[C@H](CO)[C@@H](O)[C@H]3O)c2n1)Nc1ccccc1 | 3.1 |
| Nc1nc(/N=N/NC(=O)NCc2ccccc2)nc2c1ncn2[C@@H]1O[C@H](CO)[C@@H](O)[C@H]1O | 42 |
| Nc1nc(/N=N/NC(=O)Nc2nccs2)nc2c1ncn2[C@@H]1O[C@H](CO)[C@@H](O)[C@H]1O | 24 |
| COc1ccccc1NC(=O)/N=N/Nc1nc(N)c2ncn([C@@H]3O[C@H](CO)[C@@H](O)[C@H]3O)c2n1 | 20 |

molecular target: T4, Adenosine receptor A2a (Homo sapiens, UniProt P29274)
T4 sequence (P29274 whole entry): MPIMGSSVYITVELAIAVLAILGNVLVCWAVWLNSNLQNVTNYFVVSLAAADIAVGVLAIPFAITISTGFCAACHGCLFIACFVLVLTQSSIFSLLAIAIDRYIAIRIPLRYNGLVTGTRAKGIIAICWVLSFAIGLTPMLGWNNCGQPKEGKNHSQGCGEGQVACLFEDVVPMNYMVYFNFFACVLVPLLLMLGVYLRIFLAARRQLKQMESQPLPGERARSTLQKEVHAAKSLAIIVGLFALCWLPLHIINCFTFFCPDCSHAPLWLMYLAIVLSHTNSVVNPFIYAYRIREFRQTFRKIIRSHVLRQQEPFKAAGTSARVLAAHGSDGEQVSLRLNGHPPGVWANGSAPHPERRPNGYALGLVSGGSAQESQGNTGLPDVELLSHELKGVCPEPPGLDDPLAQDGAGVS
Description: Tested for binding affinity towards human adenosine A2A receptor using [3H]ZM-241385 as radioligand

| SMILES | Ki [nM] |
| --- | --- |
| OC[C@H]1O[C@@H](n2cnc3c(NC4CCCC4)nc(Cl)nc32)[C@H](O)[C@@H]1O | 639 |
| Nc1nc(/N=N/NC(=O)Nc2ccccc2Cl)nc2c1ncn2[C@@H]1O[C@H](CO)[C@@H](O)[C@H]1O | 45 |
| COc1ccc(NC(=O)/N=N/Nc2nc(N)c3ncn([C@@H]4O[C@H](CO)[C@@H](O)[C@H]4O)c3n2)cc1 | 25 |
| O=C(N/N=N/c1nc(NCC(c2ccccc2)c2ccccc2)c2ncn([C@@H]3O[C@H](CO)[C@@H](O)[C@H]3O)c2n1)Nc1ccccc1 | 980 |
| Nc1nc(/N=N/NC(=O)NCc2ccccc2)nc2c1ncn2[C@@H]1O[C@H](CO)[C@@H](O)[C@H]1O | 25 |
| Nc1nc(/N=N/NC(=O)Nc2nccs2)nc2c1ncn2[C@@H]1O[C@H](CO)[C@@H](O)[C@H]1O | 25 |
| COc1ccccc1NC(=O)/N=N/Nc1nc(N)c2ncn([C@@H]3O[C@H](CO)[C@@H](O)[C@H]3O)c2n1 | 125 |

molecular target: T4, Adenosine receptor A2a; assay: Percent displacement of [3H]ZM-241,385 from human adenosine A2A receptor at 10 uM

| SMILES | Displacement [%] |
| --- | --- |
| Nc1nc(/N=N/NC(=O)Nc2ccc(Cl)cc2)nc2c1ncn2[C@@H]1O[C@H](CO)[C@@H](O)[C@H]1O | 4.4 |
| Nc1nc(/N=N/NC(=O)Nc2cccc(Cl)c2)nc2c1ncn2C1O[C@H](CO)[C@@H](O)[C@H]1O (stereo partly drawn) | 29.9 |
| NC(=O)/N=N/Nc1nc(Nc2ccccc2)c2ncn([C@@H]3O[C@H](CO)[C@@H](O)[C@H]3O)c2n1 | 17.7 |

molecular target: T2, Adenosine receptor A3; assay: Binding affinity for human Adenosine A3 receptor using [125 I]-IABMECA

| SMILES | Ki [nM] |
| --- | --- |
| Nc1nc(N=NNC(=O)Nc2cccc(Cl)c2)nc2c1ncn2C1O[C@H](CO)[C@@H](O)[C@H]1O (stereo partly drawn) | 59 |
| Nc1nc(/N=N/NC(=O)Nc2ccc(Cl)cc2)nc2c1ncn2[C@@H]1O[C@H](CO)[C@@H](O)[C@H]1O | 39 |
